In ChEMBL document CHEMBL1201862, “PubChem BioAssay data set” (2004):
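Results reflect a 48-hour exposure of cells in 96-well plates to compound at five concentrations. GI50: concentration for 50% inhibition of growth.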 Calls of active or inactive are those of the source. Cut-off read from the data, not from the text of the source: active = GI50 up to about 1.1 µM and inactive = higher.

What was measured:
Experiment in all cases: DTP human tumour cell line panel, 48 h
MOLT-4 = tested on: MOLT-4
SK-MEL-5 = tested on: SK-MEL-5
A549 = tested on: A549
SF-295 = tested on: SF-295
NCI-H522 = tested on: NCI-H522
786-0 = tested on: 786-0
SF-268 = tested on: SF-268
SNB-19 = tested on: SNB-19
SNB-75 = tested on: SNB-75
MDA-MB-231 = tested on: MDA-MB-231
OVCAR-8 = tested on: OVCAR-8
SK-OV-3 = tested on: SK-OV-3
OVCAR-5 = tested on: OVCAR-5
CAKI-1 = tested on: CAKI-1
UACC-62 = tested on: UACC-62
MDA-MB-435 = tested on: MDA-MB-435
HOP-92 = tested on: HOP-92
SN12C = tested on: SN12C
HL-60 = tested on: HL-60
UO-31 = tested on: UO-31
CCRF-CEM = tested on: CCRF-CEM
T47D = tested on: T47D
ACHN = tested on: ACHN
OVCAR-3 = tested on: OVCAR-3
K562 = tested on: K562
DU-145 = tested on: DU-145
MCF7 = tested on: MCF7
KM12 = tested on: KM12
NCI-H226 = tested on: NCI-H226
NCI-H23 = tested on: NCI-H23
RXF 393 = tested on: RXF 393
A498 = tested on: A498
LOX IMVI = tested on: LOX IMVI
U-251 = tested on: U-251
HCT-116 = tested on: HCT-116
HOP-62 = tested on: HOP-62
UACC-257 = tested on: UACC-257
PC-3 = tested on: PC-3
NCI/ADR-RES = tested on: NCI/ADR-RES
NCI-H460 = tested on: NCI-H460
BT-549 = tested on: BT-549
HT-29 = tested on: HT-29
Hs-578T = tested on: Hs-578T
OVCAR-4 = tested on: OVCAR-4
COLO 205 = tested on: COLO 205
TK-10 = tested on: TK-10
SK-MEL-28 = tested on: SK-MEL-28
SK-MEL-2 = tested on: SK-MEL-2
EKVX = tested on: EKVX
SW-620 = tested on: SW-620
RPMI-8226 = tested on: RPMI-8226
SF-539 = tested on: SF-539
HCT-15 = tested on: HCT-15
IGROV-1 = tested on: IGROV-1
Malme-3M = tested on: Malme-3M
MDA-N = tested on: MDA-N
M14 = tested on: M14
HCC 2998 = tested on: HCC 2998
SR = tested on: SR

Measured: GI50

COC(=O)Nc1nc2cc(NC(=O)c3ccc(I)cc3)ccc2[nH]1
> 100 µM: HCT-15
inactive: MOLT-4 > 100 µM | SK-MEL-5 > 100 µM | A549 > 100 µM | SF-295 > 100 µM | NCI-H522 24.7 µM | 786-0 > 100 µM | SF-268 > 100 µM | SNB-19 > 100 µM | SNB-75 96.8 µM | MDA-MB-231 > 100 µM | OVCAR-8 > 100 µM | SK-OV-3 > 100 µM | OVCAR-5 > 100 µM | CAKI-1 > 100 µM | UACC-62 > 100 µM | MDA-MB-435 > 100 µM | HOP-92 > 100 µM | SN12C > 100 µM | HL-60 > 100 µM | UO-31 > 100 µM | CCRF-CEM > 100 µM | T47D > 100 µM | ACHN > 100 µM | OVCAR-3 > 100 µM | K562 > 100 µM | DU-145 > 100 µM | MCF7 > 100 µM | KM12 > 100 µM | NCI-H226 > 100 µM | NCI-H23 > 100 µM | RXF 393 > 100 µM | A498 > 100 µM | LOX IMVI > 100 µM | U-251 > 100 µM | HCT-116 > 100 µM | HOP-62 > 100 µM | UACC-257 > 100 µM | PC-3 > 100 µM | NCI/ADR-RES > 100 µM | NCI-H460 > 100 µM | BT-549 > 100 µM | HT-29 > 100 µM | Hs-578T 84.1 µM | OVCAR-4 > 100 µM | COLO 205 > 100 µM | TK-10 > 100 µM | SK-MEL-28 > 100 µM | SK-MEL-2 > 100 µM | EKVX > 100 µM | SW-620 > 100 µM | RPMI-8226 > 100 µM | SF-539 > 100 µM | IGROV-1 > 100 µM | Malme-3M 72.6 µM | MDA-N > 100 µM | M14 > 100 µM

CC(=O)c1ccc2c(c1)N(CCCN1CCN(CCO)CC1)c1ccccc1C2
14.4 µM: HCT-15
inactive: MOLT-4 18.4 µM | SK-MEL-5 12.2 µM | A549 17.9 µM | SF-295 17.1 µM | NCI-H522 16.3 µM | 786-0 16.9 µM | SF-268 17.8 µM | SNB-19 18.9 µM | SNB-75 16.6 µM | MDA-MB-231 13.2 µM | OVCAR-8 16.7 µM | SK-OV-3 16.3 µM | OVCAR-5 17.2 µM | CAKI-1 13.6 µM | UACC-62 10.8 µM | MDA-MB-435 8.71 µM | HOP-92 12.9 µM | SN12C 16.9 µM | HL-60 13.8 µM | UO-31 23.8 µM | CCRF-CEM 11.7 µM | T47D 12.3 µM | ACHN 20.3 µM | OVCAR-3 15.5 µM | K562 13.5 µM | DU-145 14.3 µM | KM12 15.5 µM | NCI-H226 14.6 µM | NCI-H23 15.8 µM | RXF 393 15.4 µM | A498 15.7 µM | LOX IMVI 15.2 µM | U-251 15.8 µM | HCT-116 16.3 µM | HOP-62 15.3 µM | UACC-257 5.78 µM | PC-3 14.3 µM | NCI/ADR-RES 13.9 µM | NCI-H460 15.8 µM | BT-549 14.7 µM | HT-29 10 µM | Hs-578T 14.8 µM | OVCAR-4 15.1 µM | COLO 205 15.1 µM | TK-10 14.7 µM | SK-MEL-28 11.2 µM | SK-MEL-2 18.3 µM | EKVX 17.9 µM | SW-620 14.5 µM | RPMI-8226 12.9 µM | SF-539 16.7 µM | IGROV-1 17.3 µM | Malme-3M 18.2 µM | MDA-N 13 µM | M14 13.6 µM

COc1cc(/C=C2\CC3C4CC[C@H]5C[C@@H](O)CC[C@]5(C)C4CC[C@]3(C)\C2=N\O)cc(OC)c1OC (stereo partly specified)
9.48 µM: HCT-15
inactive: MOLT-4 5.33 µM | SK-MEL-5 5.21 µM | A549 7 µM | SF-295 3.97 µM | NCI-H522 13.1 µM | 786-0 7.96 µM | SF-268 24 µM | SNB-19 29.7 µM | SNB-75 13.4 µM | MDA-MB-231 14.3 µM | OVCAR-8 17.3 µM | SK-OV-3 19.2 µM | OVCAR-5 22.1 µM | CAKI-1 4.09 µM | UACC-62 14.3 µM | MDA-MB-435 7.41 µM | HOP-92 15.2 µM | SN12C 13.7 µM | HL-60 3.46 µM | UO-31 3.44 µM | CCRF-CEM 6.47 µM | T47D 4.73 µM | ACHN 6.59 µM | OVCAR-3 3.27 µM | K562 4.66 µM | DU-145 13.1 µM | HCC 2998 10.1 µM | MCF7 4.05 µM | KM12 6.9 µM | NCI-H226 10.8 µM | NCI-H23 15.6 µM | RXF 393 7.74 µM | A498 11.2 µM | LOX IMVI 11.5 µM | U-251 10.6 µM | HCT-116 6.19 µM | HOP-62 12 µM | UACC-257 10.7 µM | PC-3 5.43 µM | NCI/ADR-RES 12.9 µM | NCI-H460 8.05 µM | BT-549 14.9 µM | HT-29 7.36 µM | Hs-578T 8.3 µM | OVCAR-4 5.74 µM | COLO 205 5.94 µM | TK-10 16.8 µM | SK-MEL-28 14.7 µM | SK-MEL-2 11.7 µM | EKVX 8.81 µM | SW-620 18.2 µM | RPMI-8226 4.23 µM | SF-539 10.8 µM | IGROV-1 23 µM | Malme-3M 16.7 µM | MDA-N 14.8 µM | M14 14.4 µM

O=C(O)c1ccc(C2SCc3nc4ccccc4n32)cc1 (stereo unspecified)
> 100 µM: HCT-15
inactive: MOLT-4 > 100 µM | SK-MEL-5 > 100 µM | SR > 100 µM | A549 > 100 µM | SF-295 > 100 µM | NCI-H522 > 100 µM | 786-0 > 100 µM | SF-268 > 100 µM | SNB-19 > 100 µM | SNB-75 > 100 µM | MDA-MB-231 > 100 µM | OVCAR-8 > 100 µM | OVCAR-5 > 100 µM | CAKI-1 > 100 µM | HOP-92 > 100 µM | SN12C > 100 µM | HL-60 > 100 µM | UO-31 > 100 µM | CCRF-CEM > 100 µM | T47D > 10 µM | ACHN > 100 µM | OVCAR-3 > 100 µM | K562 > 100 µM | DU-145 > 100 µM | HCC 2998 > 100 µM | MCF7 > 100 µM | KM12 > 100 µM | NCI-H226 > 100 µM | NCI-H23 > 100 µM | RXF 393 > 100 µM | A498 > 100 µM | LOX IMVI > 10 µM | U-251 > 100 µM | HCT-116 > 100 µM | HOP-62 > 100 µM | UACC-257 > 100 µM | PC-3 > 100 µM | NCI-H460 > 100 µM | BT-549 > 100 µM | HT-29 > 100 µM | Hs-578T > 100 µM | OVCAR-4 > 100 µM | TK-10 > 100 µM | SK-MEL-28 > 100 µM | SK-MEL-2 > 100 µM | EKVX > 100 µM | SW-620 > 100 µM | RPMI-8226 > 100 µM | SF-539 > 100 µM | IGROV-1 > 100 µM | Malme-3M > 100 µM | MDA-N > 100 µM | M14 > 100 µM

Clc1ccc(Nc2nn3c(CCCCCCCCc4nnc5sc(Nc6ccc(Cl)cc6)nn45)nnc3s2)cc1
> 100 µM: HCT-15
inactive: MOLT-4 90.6 µM | SK-MEL-5 > 100 µM | A549 > 100 µM | SF-295 36 µM | NCI-H522 > 100 µM | 786-0 51.6 µM | SF-268 > 100 µM | SNB-19 25.1 µM | SNB-75 23.3 µM | MDA-MB-231 29.4 µM | OVCAR-8 > 100 µM | SK-OV-3 > 100 µM | OVCAR-5 > 100 µM | CAKI-1 > 100 µM | UACC-62 > 100 µM | MDA-MB-435 > 100 µM | HOP-92 > 100 µM | SN12C > 100 µM | UO-31 > 100 µM | CCRF-CEM 17.6 µM | T47D > 100 µM | ACHN > 100 µM | OVCAR-3 > 100 µM | K562 50.5 µM | DU-145 > 100 µM | HCC 2998 > 100 µM | MCF7 > 100 µM | KM12 > 100 µM | NCI-H226 > 100 µM | NCI-H23 > 100 µM | RXF 393 > 100 µM | A498 > 100 µM | LOX IMVI > 100 µM | U-251 37 µM | HCT-116 > 100 µM | HOP-62 38.3 µM | UACC-257 > 100 µM | PC-3 > 100 µM | NCI/ADR-RES > 100 µM | NCI-H460 > 100 µM | BT-549 > 100 µM | HT-29 49.3 µM | Hs-578T > 100 µM | OVCAR-4 > 100 µM | COLO 205 > 100 µM | TK-10 29.4 µM | SK-MEL-28 > 100 µM | SK-MEL-2 > 100 µM | EKVX > 100 µM | SW-620 > 100 µM | RPMI-8226 > 100 µM | SF-539 > 100 µM | Malme-3M > 100 µM | MDA-N > 100 µM | M14 > 100 µM
